Measured values: US12486218B2, “Compounds advantageous in the treatment of central nervous system diseases and disorders” (AurimMed Pharma, Inc., priority 2008, dated 2025)

Key:
[1] = in vivo; settings: mouse, ip
Description: The animal testing was performed according to methods known in the relevant art.

[2] = test system: rats; assay: Pilocarpine-induced Status Epilepticus in Rats (prevention; intervention @ 30 min)
Description: The animal testing was performed using the protocols developed in the Anticonvulsant Screening Program (ASP) at the National Institute of Neurological Disorders and Stroke (NINDS), National Institutes of Health (NIH).

[3] = target: CYP-450 2A6 (Homo sapiens, UniProt P11509); assay: In vitro human CYP-450 study, 2A6; assay type: in vitro ADME; settings: human enzyme
Excerpt: (§1) On the other hand, it is an inhibitor for 2C19, 2D6, 2A6 and 2C9.

[4] = target: CYP-450 2B6 (Homo sapiens, UniProt P20813); assay: In vitro human CYP-450 study, 2B6; assay type: in vitro ADME; settings: human enzyme
Sequence of CYP-450 2B6 (P20813 whole entry): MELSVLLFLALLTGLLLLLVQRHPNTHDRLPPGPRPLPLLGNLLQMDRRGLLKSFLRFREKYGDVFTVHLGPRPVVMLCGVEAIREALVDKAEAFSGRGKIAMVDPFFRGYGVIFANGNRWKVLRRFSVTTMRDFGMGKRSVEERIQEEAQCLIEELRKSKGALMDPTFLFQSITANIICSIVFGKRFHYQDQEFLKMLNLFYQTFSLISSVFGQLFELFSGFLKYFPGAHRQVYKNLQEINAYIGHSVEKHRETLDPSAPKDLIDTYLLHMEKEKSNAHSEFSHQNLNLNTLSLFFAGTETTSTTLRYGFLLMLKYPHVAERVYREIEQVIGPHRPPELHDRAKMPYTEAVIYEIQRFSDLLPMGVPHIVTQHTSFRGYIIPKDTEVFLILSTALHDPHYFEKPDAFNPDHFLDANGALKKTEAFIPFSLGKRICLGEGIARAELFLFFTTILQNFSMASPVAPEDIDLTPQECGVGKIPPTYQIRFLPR
Excerpt: as §1

[5] = test system: mice; assay: Maximal Electroshock Seizure (MES) test, mice i.p.; assay type: in vivo; settings: Mus musculus, ip
[6] = test system: NMDA receptors; assay: Electrophysiology, NMDA current; assay type: cell-based; settings: at 100 μM [+glycine (1 μM)], holding potential −70 mV
Excerpt: The mechanisms of action of many currently marketed anticonvulsant drugs are not fully understood. Although numerous molecular targets exist wherein anticonvulsants may exert an effect, the final common pathway appears to be through modulation of voltage-gated and/or neurotransmitter-gated ion channels. Thus, the common link among the various proposed mechanisms involves the ability of an anticonvulsant to modulate ion channel function. Presently, a number of prototype anticonvulsants are thought to exert their action (at least in part) by reducing sustained, high-frequency repetitive firing of action potentials by modulating voltage-dependent sodium (Na+) channels. The effect of promising candidate substances on voltage-gated Na+ channels can be assessed using state-of-the-art electrophysiological techniques.

[7] = target: CYP-450 2C9 (Homo sapiens, UniProt P11712); assay: In vitro human CYP-450 study, 2C9; assay type: in vitro ADME; settings: human enzyme
Sequence of CYP-450 2C9 (P11712 whole entry): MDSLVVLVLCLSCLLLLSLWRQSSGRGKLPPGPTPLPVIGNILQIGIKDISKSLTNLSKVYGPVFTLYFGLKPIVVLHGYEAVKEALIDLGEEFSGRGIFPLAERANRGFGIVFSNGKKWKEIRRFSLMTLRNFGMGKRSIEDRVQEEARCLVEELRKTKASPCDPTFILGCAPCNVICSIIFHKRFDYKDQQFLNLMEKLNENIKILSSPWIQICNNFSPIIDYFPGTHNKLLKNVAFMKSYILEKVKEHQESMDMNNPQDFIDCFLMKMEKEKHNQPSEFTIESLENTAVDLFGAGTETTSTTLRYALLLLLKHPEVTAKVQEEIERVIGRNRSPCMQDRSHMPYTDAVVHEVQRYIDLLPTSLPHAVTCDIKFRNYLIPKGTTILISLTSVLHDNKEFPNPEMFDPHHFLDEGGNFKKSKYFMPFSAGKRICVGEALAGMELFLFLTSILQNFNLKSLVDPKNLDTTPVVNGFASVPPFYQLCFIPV
Excerpt: as §1

[8] = test system: rats; assay: s.c. MET test, rats p.o.; assay type: in vivo; settings: Rattus norvegicus, p.o.
[9] = test system: mice; assay: Mouse formalin pain model; assay type: in vivo; settings: 76 mg/kg i.p., at 0.5 hours
[10] = test system: type II SMA fibroblasts (GM03813); assay: SMN protein localization, gem counting in type II SMA fibroblasts; assay type: cell-based; settings: 100 nM-10 μM, 5 days
Description: To validate the SMN2 promoter and exon 7 screens, the effects of compounds H, H (acid form), AY, F, BX, and BY were evaluated on the basis of expression and localization of SMN protein in type II SMA fibroblasts (GM03813). In a normal cell, SMN protein localized within the nucleus to discreet foci known as gems. In SMN-deficient SMA cells, the number of gems is greatly diminished. Although the function of gems is unknown, it is believed that they are somehow involved in the snRNP assembly function of SMN. Gem counting can, therefore, be considered an assay for SMN function.
GM03813 fibroblasts were treated with different doses (100 nM-10 μM) of compounds H, H (acid form), AY, F, BX, and BY for 5 days. SMN immunostaining was then completed on these cells and the number of gems was counted in 100 randomly-selected nuclei. […] In fact, the gem counts at the highest dose of compound H approach those observed for carrier fibroblasts (GM03814). When compared against treatment with 1 μM D157495—a D156844 derivative, all of the compounds tested performed as well as or, even better than D157495.

[11] = test system: CYP2C19, CYP2D6, CYP2A6, CYP2C9; assay: In vitro human CYP-450 study, Ki values over the enzymes; assay type: in vitro ADME; settings: range over the enzymes, not assigned to single isoforms
Excerpt: as §1

[12] = target: CYP-450 2D6 (Homo sapiens, UniProt P10635); assay: In vitro human CYP-450 study, 2D6; assay type: in vitro ADME; settings: human enzyme
Sequence of CYP-450 2D6 (P10635 whole entry): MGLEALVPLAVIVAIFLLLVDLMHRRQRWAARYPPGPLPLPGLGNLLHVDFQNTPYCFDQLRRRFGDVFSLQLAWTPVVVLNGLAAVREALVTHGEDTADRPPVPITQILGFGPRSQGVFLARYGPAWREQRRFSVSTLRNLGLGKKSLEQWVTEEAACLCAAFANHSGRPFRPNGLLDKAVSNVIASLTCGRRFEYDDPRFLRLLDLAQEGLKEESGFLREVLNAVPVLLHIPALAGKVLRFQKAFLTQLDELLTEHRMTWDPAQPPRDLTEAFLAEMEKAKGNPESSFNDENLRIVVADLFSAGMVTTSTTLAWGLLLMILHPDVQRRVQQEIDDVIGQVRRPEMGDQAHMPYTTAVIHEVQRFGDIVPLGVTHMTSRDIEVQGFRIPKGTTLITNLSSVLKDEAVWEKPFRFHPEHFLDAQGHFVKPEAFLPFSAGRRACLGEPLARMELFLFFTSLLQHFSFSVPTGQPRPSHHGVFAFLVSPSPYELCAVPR
Excerpt: as §1

[13] = test system: C3A hepatocyte cells; assay: ACTIVTox LDH release assay; assay type: cell-based
Description: Compounds A, I, H, and F were tested by Stem Cell Innovations, Inc. (Houston, TX) in their ACTIVTox® Human Liver Cell-based assays (using C3A hepatocyte cells). Specifically, the compounds were tested in the LDH release assay, which determines the release of Lactate DeHydrogenase (an indicator of cell death) at various concentrations of test compound.
A concentration of 100 µM of test compound is a much higher level of exposure to liver cells than would ever be expected under physiological conditions. Therefore, using 100 μM as a standard test concentration (for comparative purposes), the ratio of the absorbance (which measures the level of LDH release) resulting from the presence of the test compound versus the negative control is a value known as the “average (or mean) fold control” (Average Fold Control=Average of Absorbance/Average of Negative Control).

[14] = test system: mice; assay: Audiogenic Seizure susceptible (AGS) test, mice i.p.; assay type: in vivo; settings: Mus musculus, ip
[15] = test system: rats; assay: Hippocampal Kindled Rats model; assay type: in vivo; settings: Rattus norvegicus
[16] = test system: mice; assay: Subcutaneous Metrazol Seizure threshold (s.c. MET) test, mice i.p.; assay type: in vivo; settings: Mus musculus
[17] = test system: dopaminergic neurons of striatum and Substantia Nigra pars compacta; assay: MPTP-treated mice, immunohistochemical analysis (tyrosine hydroxylase); assay type: in vivo; settings: two weeks of oral treatment
Description: FIGS. 28A and 28B illustrate immunohistochemical analysis of the brains of mice treated with MPTP. As mentioned above, MPTP causes Parkinson's-like symptoms by destroying dopaminergic neurons in the substantia nigra of the brain. Loss of dopaminergic neurons leads to the loss of the neurotransmitter dopamine and the onset of Parkinson's symptoms. In these tests, tyrosine hydroxylase (TH) levels were measured in the Striatum (St) (FIG. 28A) and TH+ dopaminergic neurons in the Substantia Nigra pars compacta (SNpc) were counted (FIG. 28B) to assess the recovery effect of compound BX treatment from chronic MPTP-induced damage.

[18] = test system: SMN2 promoter; assay: SMN2 promoter β-lactamase reporter assay in NSC34 motor neuron-like cells; assay type: cell-based
Description: FIG. 30 illustrates a screen for SMN2 expression of a number of compounds described herein.
SMN2 promoter activity was measured using NSC34 motor neuron-like cells stably transfected with a β-lactamase (BLA) reporter gene under the control of a 3.4-kilobase fragment of the SMN2 promoter. D156844 was used as a positive control for this assay.

[19] = Rattus norvegicus, 0.5 h, read-out: Intervention @ 30 min, Protection
[20] = Rattus norvegicus, read-out: Prevention, Protection

Sequence of CYP-450 2A6 (P11509 whole entry): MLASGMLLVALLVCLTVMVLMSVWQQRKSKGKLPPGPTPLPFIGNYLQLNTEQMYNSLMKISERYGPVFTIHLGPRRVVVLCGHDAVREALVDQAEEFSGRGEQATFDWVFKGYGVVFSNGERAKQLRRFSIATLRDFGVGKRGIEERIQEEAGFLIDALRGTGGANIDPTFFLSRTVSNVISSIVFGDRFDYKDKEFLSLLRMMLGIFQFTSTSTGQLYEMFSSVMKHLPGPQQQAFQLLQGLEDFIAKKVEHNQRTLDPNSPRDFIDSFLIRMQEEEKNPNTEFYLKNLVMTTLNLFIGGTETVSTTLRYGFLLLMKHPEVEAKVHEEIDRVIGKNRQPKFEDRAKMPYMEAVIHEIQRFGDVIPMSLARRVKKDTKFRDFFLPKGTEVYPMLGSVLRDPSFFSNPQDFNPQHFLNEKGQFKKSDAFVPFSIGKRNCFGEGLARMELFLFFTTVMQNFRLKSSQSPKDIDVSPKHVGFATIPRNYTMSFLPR

CC(CC(N)=O)c1ccc(OC(F)(F)F)cc1 (racemic) [Compound H, 3-[4-(trifluoromethoxy)-phenyl]butyramide]
TD50 [1]: 159 mg/kg
responders at 176 mg/kg [2, 19]: 97%
responders at 200 mg/kg [2, 20]: 86%
inhibition of CYP-450 2A6 [3]: inhibitor
inhibition of CYP-450 2B6 [4]: either no or only a remote possibility of inhibiting
ED50 ([5]; mice): 76.1 mg/kg
ED50 ([5]; mice i.p., @ 0.5 hrs): 76.1 mg/kg
NMDA current (enhancement) [6]: 119±7 % of control
inhibition of CYP-450 2C9 [7]: inhibitor
ED50 [8]: 88.1 mg/kg
pain response, acute phase [9]: 63 % of the control
pain response, inflammatory phase [9]: 63 % of the control
gem counts (SMN immunostaining, 100 nuclei) [10]: increase gem counts in a dose-dependent manner
relative potency in increasing gem counts [10]: most potent
Ki [11]: 29 to 174 µM
inhibition of CYP-450 2D6 [12]: inhibitor
LDH release, mean fold control ([13]; at 100 μM, C3A hepatocyte cells, value below 1.75 = no cyto- or hepatotoxic activity): 1.32
cyto- or hepatotoxicity, ACTIVTox data ([13]; at physiologically relevant concentrations (i.e., <100 µM)): not cyto- or hepatotoxic
ED50 ([14]; mice): 22.5 mg/kg
ED50 ([14]; mice i.p., @ 0.5 hr): 22.5 mg/kg
ED50 [15]: 61 mg/kg
ED50 ([16]; mice i.p., @ 0.5 hrs): 91.4 mg/kg
ED50 ([16]; mice, i.p.): 91.4 mg/kg

C[C@H](CC(N)=O)c1ccc(OC(F)(F)F)cc1 (single isomer, unassigned) [Compound BX, R-(−)-3-(4-Trifluoromethoxy-phenyl)butyramide]
TH+ dopaminergic neurons in the Substantia Nigra pars compacta [17]: stimulated the regrowth of TH+ dopaminergic neurons
tyrosine hydroxylase (TH) levels in the Striatum [17]: induce recovery from MPTP-induced damage in striatum
TD50 at 0.25 hr [1]: 104 mg/kg
responders at 155 mg/kg [2, 19]: 50%
responders at 100 mg/kg [2, 20]: 100%
effect on convulsive SE ([2]; rats, 200 mg/kg, administered 30′ after the first stage 3 seizure): halted the convulsive SE
ED50 ([5]; mice i.p., @ 1.0 hr): 47.9 mg/kg
SMN2 promoter assay, particularly strong hits ([18]; NSC34 BLA reporter cells): Particularly strong hits
Promoter (SMN2 promoter test, summary YES/NO) ([18]; Table 13 summary): YES
SMN2 promoter activity ([18]; treatment for 19 hours at a concentration of 1 μM): increased SMN2 promoter activity
pain response, acute phase [9]: 84 % of the control
pain response, inflammatory phase [9]: 41 % of the control
gem counts (SMN immunostaining, 100 nuclei) [10]: increase gem counts in a dose-dependent manner
ED50 ([14]; mice i.p., @ 0.5 hr): 16.5 mg/kg
ED50 ([16]; mice i.p., @ 1.0 hr): 51.4 mg/kg
